Measured values taken from patent US10597388B2, “Pyridazinone herbicides” (FMC CORPORATION, priority 2014, dated 2020).

Key:
Assay in all cases: Test C greenhouse herbicide test, pre- and postemergence
Format in all cases: in vivo
[1] = tested on: barnyardgrass (Echinochloa crus-galli)
How it was run: (§1)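 Preemergence: seeds sown in a loam soil–sand blend and sprayed with test chemicals in a non-phytotoxic solvent mixture containing surfactant. Postemergence: plants grown in peat-based medium and treated at 2 to 18 cm (1- to 4-leaf stage). After 13 to 15 d in a greenhouse, injury was visually rated 0–100 against controls.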

[2] = tested on: velvetleaf (Abutilon theophrasti)
How it was run: as §1

[3] = tested on: ryegrass, Italian (Italian ryegrass, Lolium multiflorum)
How it was run: as §1

[4] = tested on: corn (Zea mays)
How it was run: as §1

[5] = tested on: nutsedge, yellow (yellow nutsedge, Cyperus esculentus)
How it was run: as §1

[6] = tested on: foxtail, giant (giant foxtail, Setaria faberii)
How it was run: as §1

[7] = tested on: soybean (Glycine max)
How it was run: as §1

[8] = tested on: wheat (winter wheat, Triticum aestivum)
How it was run: as §1

[9] = tested on: johnsongrass (Sorghum halepense)
How it was run: as §1

[10] = tested on: crabgrass, large (large crabgrass, Digitaria sanguinalis)
How it was run: as §1

[11] = tested on: blackgrass (Alopecurus myosuroides)
How it was run: as §1

[12] = tested on: galium (catchweed bedstraw, Galium aparine)
How it was run: as §1

[13] = Postemergence, 8 g ai/ha, scale 0 to 100 (0 no effect, 100 complete control)
[14] = Postemergence, 16 g ai/ha, scale 0 to 100 (0 no effect, 100 complete control)
[15] = Postemergence, 31 g ai/ha, 0 to 100 scale (0 no effect, 100 complete control)
[16] = Preemergence, 8 g ai/ha, scale 0 to 100, 0 is no effect, 100 is complete control
[17] = Preemergence, 16 g ai/ha, scale 0 to 100, 0 is no effect, 100 is complete control
[18] = Preemergence, 31 g ai/ha, scale 0 to 100, 0 is no effect, 100 is complete control
[19] = Preemergence, 62 g ai/ha, scale 0 to 100, 0 is no effect, 100 is complete control
[20] = postemergence, 62 g ai/ha, scale 0 to 100, 0 no effect, 100 complete control
[21] = Postemergence, 125 g ai/ha, scale 0 to 100, 0 is no effect, 100 is complete control
[22] = Postemergence, 250 g ai/ha, scale 0 to 100, 0 no effect, 100 complete control, 13 to 15 d

## Cc1nn(C)c(=O)c(-c2c(C)sc3c(C)cc(Cl)cc23)c1O [Compound 35]
[1]; [13]
  Plant response rating, Barnyardgrass: 10
[1]; [14]
  Plant response rating, Barnyardgrass: 10
[1]; [15]
  Barnyardgrass plant response rating: 20
[1]; [16]
  Plant response rating, Barnyardgrass: 0
[1]; [17]
  Plant response rating, Barnyardgrass: 5
[1]; [18]
  Plant response rating, Barnyardgrass: 5
[1]; [19]
  Plant response rating, Barnyardgrass: 25
[1]; [20]
  Barnyardgrass plant response rating: 20
[2]; [13]
  Plant response rating, Velvetleaf: 60
[2]; [14]
  Plant response rating, Velvetleaf: 75
[2]; [15]
  Velvetleaf plant response rating: 100
[2]; [17]
  Plant response rating, Velvetleaf: 0
[2]; [18]
  Plant response rating, Velvetleaf: 40
[2]; [19]
  Plant response rating, Velvetleaf: 85
[2]; [20]
  Velvetleaf plant response rating: 100
[3]; [13]
  Plant response rating, Ryegrass, Italian: 10
[3]; [14]
  Plant response rating, Ryegrass, Italian: 30
[3]; [15]
  Ryegrass, Italian plant response rating: 35
[3]; [17]
  Plant response rating, Ryegrass, Italian: 50
[3]; [18]
  Plant response rating, Ryegrass, Italian: 65
[3]; [19]
  Plant response rating, Ryegrass, Italian: 70
[3]; [20]
  Ryegrass, Italian plant response rating: 55
[4]; [13]
  Plant response rating, Corn: 0
[4]; [14]
  Plant response rating, Corn: 0
[4]; [15]
  Corn plant response rating: 5
[4]; [16]
  Plant response rating, Corn: 0
[4]; [17]
  Plant response rating, Corn: 0
[4]; [18]
  Plant response rating, Corn: 0
[4]; [19]
  Plant response rating, Corn: 0
[4]; [20]
  Corn plant response rating: 5
[5]; [13]
  Plant response rating, Nutsedge, Yellow: 45
[5]; [14]
  Plant response rating, Nutsedge, Yellow: 60
[5]; [15]
  Nutsedge, Yellow plant response rating: 75
[5]; [17]
  Plant response rating, Nutsedge, Yellow: 20
[5]; [18]
  Plant response rating, Nutsedge, Yellow: 20
[5]; [19]
  Plant response rating, Nutsedge, Yellow: 40
[5]; [20]
  Nutsedge, Yellow plant response rating: 85
[6]; [13]
  Plant response rating, Foxtail, Giant: 25
[6]; [14]
  Plant response rating, Foxtail, Giant: 35
[6]; [15]
  Foxtail, Giant plant response rating: 50
[6]; [16]
  Plant response rating, Foxtail, Giant: 5
[6]; [17]
  Plant response rating, Foxtail, Giant: 25
[6]; [18]
  Plant response rating, Foxtail, Giant: 60
[6]; [19]
  Plant response rating, Foxtail, Giant: 85
[6]; [20]
  Foxtail, Giant plant response rating: 75
[7]; [13]
  Plant response rating, Soybean: 0
[7]; [14]
  Plant response rating, Soybean: 0
[7]; [15]
  Soybean plant response rating: 0
[7]; [17]
  Plant response rating, Soybean: 0
[7]; [18]
  Plant response rating, Soybean: 0
[7]; [19]
  Plant response rating, Soybean: 0
[7]; [20]
  Soybean plant response rating: 5
[8]; [13]
  Plant response rating, Wheat: 0
[8]; [14]
  Plant response rating, Wheat: 0
[8]; [15]
  Wheat plant response rating: 0
[8]; [17]
  Plant response rating, Wheat: 0
[8]; [18]
  Plant response rating, Wheat: 0
[8]; [19]
  Plant response rating, Wheat: 5
[8]; [20]
  Wheat plant response rating: 5
[9]; [13]
  Plant response rating, Johnsongrass: 10
[9]; [14]
  Plant response rating, Johnsongrass: 15
[9]; [15]
  Johnsongrass plant response rating: 20
[9]; [17]
  Plant response rating, Johnsongrass: 0
[9]; [18]
  Plant response rating, Johnsongrass: 10
[9]; [19]
  Plant response rating, Johnsongrass: 10
[9]; [20]
  Johnsongrass plant response rating: 20
[10]; [13]
  Plant response rating, Crabgrass, Large: 5
[10]; [14]
  Plant response rating, Crabgrass, Large: 5
[10]; [15]
  Crabgrass, Large plant response rating: 20
[10]; [16]
  Plant response rating, Crabgrass, Large: 0
[10]; [17]
  Plant response rating, Crabgrass, Large: 0
[10]; [18]
  Plant response rating, Crabgrass, Large: 5
[10]; [19]
  Plant response rating, Crabgrass, Large: 5
[10]; [20]
  Crabgrass, Large plant response rating: 20
[11]; [13]
  Plant response rating, Blackgrass: 0
[11]; [14]
  Plant response rating, Blackgrass: 5
[11]; [15]
  Blackgrass plant response rating: 15
[11]; [16]
  Plant response rating, Blackgrass: 5
[11]; [17]
  Plant response rating, Blackgrass: 40
[11]; [18]
  Plant response rating, Blackgrass: 50
[11]; [19]
  Plant response rating, Blackgrass: 55
[11]; [20]
  Blackgrass plant response rating: 45
[12]; [13]
  Plant response rating, Galium: 90
[12]; [14]
  Plant response rating, Galium: 90
[12]; [15]
  Galium plant response rating: 90
[12]; [17]
  Plant response rating, Galium: 90
[12]; [18]
  Plant response rating, Galium: 90
[12]; [19]
  Plant response rating, Galium: 95
[12]; [20]
  Galium plant response rating: 95

## CCC(=O)Oc1c(C)nn(C)c(=O)c1-c1c(C)ccc2ccccc12 [Compound 78]
[1]; [15]
  Barnyardgrass plant response rating: 15
[1]; [21]
  Plant response rating, Barnyardgrass: 30
[1]; [22]
  Plant response rating, Barnyardgrass: 25
[1]; [20]
  Barnyardgrass plant response rating: 25
[2]; [15]
  Velvetleaf plant response rating: 0
[2]; [21]
  Plant response rating, Velvetleaf: 35
[2]; [22]
  Plant response rating, Velvetleaf: 60
[2]; [20]
  Velvetleaf plant response rating: 10
[3]; [15]
  Ryegrass, Italian plant response rating: 55
[3]; [21]
  Plant response rating, Ryegrass, Italian: 85
[3]; [22]
  Plant response rating, Ryegrass, Italian: 90
[3]; [20]
  Ryegrass, Italian plant response rating: 65
[4]; [15]
  Corn plant response rating: 0
[4]; [21]
  Plant response rating, Corn: 10
[4]; [22]
  Plant response rating, Corn: 0
[4]; [20]
  Corn plant response rating: 0
[5]; [15]
  Nutsedge, Yellow plant response rating: 0
[5]; [21]
  Plant response rating, Nutsedge, Yellow: 35
[5]; [22]
  Plant response rating, Nutsedge, Yellow: 60
[5]; [20]
  Nutsedge, Yellow plant response rating: 25
[6]; [15]
  Foxtail, Giant plant response rating: 15
[6]; [21]
  Plant response rating, Foxtail, Giant: 20
[6]; [22]
  Plant response rating, Foxtail, Giant: 25
[6]; [20]
  Foxtail, Giant plant response rating: 5
[7]; [15]
  Soybean plant response rating: 0
[7]; [21]
  Plant response rating, Soybean: 5
[7]; [22]
  Plant response rating, Soybean: 20
[7]; [20]
  Soybean plant response rating: 0
[8]; [15]
  Wheat plant response rating: 0
[8]; [21]
  Plant response rating, Wheat: 5
[8]; [22]
  Plant response rating, Wheat: 10
[8]; [20]
  Wheat plant response rating: 5
[9]; [15]
  Johnsongrass plant response rating: 5
[9]; [21]
  Plant response rating, Johnsongrass: 5
[9]; [22]
  Plant response rating, Johnsongrass: 5
[9]; [20]
  Johnsongrass plant response rating: 5
[10]; [15]
  Crabgrass, Large plant response rating: 5
[10]; [21]
  Plant response rating, Crabgrass, Large: 10
[10]; [22]
  Plant response rating, Crabgrass, Large: 10
[10]; [20]
  Crabgrass, Large plant response rating: 5
[11]; [15]
  Blackgrass plant response rating: 0
[11]; [21]
  Plant response rating, Blackgrass: 5
[11]; [22]
  Plant response rating, Blackgrass: 30
[11]; [20]
  Blackgrass plant response rating: 5
[12]; [15]
  Galium plant response rating: 70
[12]; [21]
  Plant response rating, Galium: 80
[12]; [22]
  Plant response rating, Galium: 95
[12]; [20]
  Galium plant response rating: 80
